The source of these data is patent publication EP1561465A2, “Methods of use of fluoroquinolone compounds against bacteria” (LG Life Sciences, Ltd., priority 1999, dated 2001).

≈ marks a conversion by molar mass, not a printed value. Read-outs that look alike come from different tables or passages of the source. Some results are limits rather than exact numbers.

The test system of one assay is Pseudomonas aeruginosa. The assay is described as follows: MIC by agar dilution (NCCLS), 322 nosocomial Gram negative isolates, Athens 1998. The format is cell-based. Conditions: n = 57 isolates. Background: In agar dilution, organisms are placed on agar that contains the substance at set levels.
A further assay has as its system Klebsiella pneumoniae. The assay is described as above. The assay is classed as cell-based. Conditions: Klebsiella pneumoniae; n = 56 isolates.
The next assay relates to Proteus mirabilis. The assay is described as above. The assay is classed as cell-based. To be noted: Proteus mirabilis; n = 57 isolates.
Another assay concerns Enterobacter spp. Described as above. The format is cell-based. To be noted: Enterobacter, n = 57 isolates; for MIC50: read-out: MIC50; for MIC90: read-out: MIC90.
Another assay relates to Acinetobacter spp. The description is as above. The format is cell-based. To be noted: Acinetobacter; n = 38 strains.
The next assay has as its system Escherichia coli. The assay is described as above. The assay is classed as cell-based. Conditions: n = 57 isolates.
Assay [1] has as its system Salmonella spp. The experiment in a line: MIC by agar dilution (NCCLS M7-A4), 288 enteropathogenic isolates, eight quinolones. Conditions: for MIC: ciprofloxacin MIC ≥[…], read-out: MIC. The format is cell-based.
Assay [2] has as its system Hafnia alvei. The assay is described as above. The assay is classed as cell-based. To be noted: Hafnia alvei (n = 32).
Assay [3] concerns Yersinia enterocolitica. Described as above. The assay is classed as cell-based. To be noted: Yersinia enterocolitica (n = 22).
Assay [4] relates to Shigella spp. The description is as above. The assay is classed as cell-based. To be noted: Shigella spp. (n = 21).
The subject of assay [5] is Aeromonas spp. The assay is described as above. The format is cell-based. Conditions: Aeromonas spp. (n = 16).
In assay [6] the test system is Campylobacter jejuni. The experiment in a line: MIC by agar dilution (NCCLS M7-A4), 5% sheep blood, microaerophilic 48 h. The format is cell-based. To be noted: Campylobacter jejuni (n=91).
Assay [7] deals with Salmonella spp. The assay is described as follows: MIC by agar dilution (NCCLS M7-A4), 288 enteropathogenic isolates, gemifloxacin and 15 other antimicrobials. The assay is classed as cell-based.
For assay [8], the system named is Hafnia alvei. Described as above. The assay is classed as cell-based. Conditions: Hafnia alvei N= 32.
In assay [9] the test system is Yersinia enterocolitica. The assay is described as above. The format is cell-based. Conditions: Yersinia enterocolitica N= 22.
The subject of assay [10] is Shigella spp. Described as above. Conditions: Shigella spp. N= 21. The assay is classed as cell-based. The method in brief: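 Agar dilution with ~10^4 cfu/spot inoculum; plates incubated aerobically at 35 °C for 24 h, except C. jejuni, held microaerophilically for 48 h. MIC taken as lowest antibiotic concentration with no visible growth.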
In assay [11] the test system is Aeromonas spp. The assay is described as above. The format is cell-based. Conditions: Aeromonas spp. N= 16.
Assay [12] deals with Campylobacter jejuni. The assay is described as above. Conditions: Campylobacter jejuni.
[13] abbreviates: 24 h, read-out: MIC (mg/L) Range.

For `CO/N=C(\C(=O)N[C@@H]1C(=O)N2C(C(=O)[O-])=C(C[N+]3(C)CCCC3)CS[C@H]12)c1csc(N)n1` [Cefepime], the MIC50 (in general, the lowest concentration that inhibits either 50% of growth or 50% of the strains tested, depending on the study) with Pseudomonas aeruginosa came out at 8 µg/mL (≈ 16.6 µM); against Klebsiella pneumoniae it was 0.06 µg/mL (≈ 0.125 µM); against Proteus mirabilis it was 0.125 µg/mL (≈ 0.26 µM); in the assay on Enterobacter spp., 0.125 µg/mL (≈ 0.26 µM); against Acinetobacter spp., 16 µg/mL (≈ 33.3 µM). Moreover, the MIC90 (usually the lowest concentration that inhibits either 90% of growth or 90% of the strains tested, depending on the study) is greater than 64 µg/mL in the assay with Pseudomonas aeruginosa; 8 µg/mL (≈ 16.6 µM) in the assay on Klebsiella pneumoniae; 8 µg/mL (≈ 16.6 µM) in the assay with Proteus mirabilis; 16 µg/mL (≈ 33.3 µM) in the assay on Enterobacter spp.; 64 µg/mL (≈ 133 µM) with Acinetobacter spp..
For the compound `CO[C@@]1(NC(=O)Cc2cccs2)C(=O)N2C(C(=O)O)=C(COC(N)=O)CS[C@@H]21` [Cefoxitin], the MIC50 against Escherichia coli (Escherichia coli) was 4 µg/mL (≈ 9.36 µM); against Klebsiella pneumoniae, 4 µg/mL (≈ 9.36 µM); against Proteus mirabilis it was 4 µg/mL (≈ 9.36 µM); in the assay with Enterobacter spp., greater than 64 µg/mL; with Acinetobacter spp., greater than 64 µg/mL. For the same compound, the MIC90 in the assay on Escherichia coli (Escherichia coli) was 16 µg/mL (≈ 37.4 µM); against Klebsiella pneumoniae it was 16 µg/mL (≈ 37.4 µM); with Proteus mirabilis, 16 µg/mL (≈ 37.4 µM); in the assay on Enterobacter spp., greater than 64 µg/mL; in the assay with Acinetobacter spp. it was greater than 64 µg/mL. In the assay with Escherichia coli, the “MIC Range” value was 2 to 32 µg/mL.
On to `CCn1cc(C(=O)O)c(=O)c2cc(F)c(N3CCNCC3)cc21` [Norfloxacin, norfloxacin], for which the MIC was 4 µg/mL (≈ 12.5 µM) in the assay with Salmonella spp. [1] (S. hadar (n = 2)); 2 µg/mL (≈ 6.26 µM) in the assay with Salmonella spp. [1] (S. newport (n = 1)); 0.5 µg/mL (≈ 1.57 µM) with Salmonella spp. [1] (S. virchow (n = 2)); 4 µg/mL (≈ 12.5 µM) with Salmonella spp. [1] (Salmonella, S. tshiongwe (n = 1)); 4 mg/L (≈ 12.5 µM) in the assay with Salmonella spp. [7] (S. hadar(2), isolates with MICs for ciprofloxacin ≥[…], read-out: MIC); 2 mg/L (≈ 6.26 µM) in the assay on Salmonella spp. [7] (S. newport(1), isolate with MIC for ciprofloxacin ≥[…], read-out: MIC). For the same compound, the MIC was 0.5 mg/L (≈ 1.57 µM) in the assay on Salmonella spp. [7] (S. virchow(2), isolates with MICs for ciprofloxacin ≥[…], read-out: MIC); 4 mg/L (≈ 12.5 µM) with Salmonella spp. [7] (Salmonella, S. tshiongwe(1), isolate with MIC for ciprofloxacin ≥[…], read-out: MIC); 0.06 mg/L (≈ 0.188 µM) in the assay with Salmonella spp. [7] (Salmonella, read-out: MIC (mg/L) 50%, Salmonella spp. N= 106); 0.5 mg/L (≈ 1.57 µM) in the assay with Salmonella spp. [7] (Salmonella, read-out: MIC (mg/L) 90%, Salmonella spp. N= 106); 0.015 to 0.03 mg/L (≈ 0.047 to 0.0939 µM) in the assay on Hafnia alvei [8] (setting [13]); 0.03 mg/L (≈ 0.0939 µM) with Hafnia alvei [8] (read-out: MIC (mg/L) 50%). The MIC was 0.03 mg/L (≈ 0.0939 µM) in the assay with Hafnia alvei [8] (read-out: MIC (mg/L) 90%); 0.06 to 0.5 mg/L (≈ 0.188 to 1.57 µM) with Yersinia enterocolitica [9] (setting [13]); 0.06 mg/L (≈ 0.188 µM) with Yersinia enterocolitica [9] (read-out: MIC (mg/L) 50%); 0.06 mg/L (≈ 0.188 µM) with Yersinia enterocolitica [9] (read-out: MIC (mg/L) 90%); 0.03 to 0.06 mg/L (≈ 0.0939 to 0.188 µM) in the assay on Shigella spp. [10] (setting [13]); 0.06 mg/L (≈ 0.188 µM) with Shigella spp. [10] (read-out: MIC (mg/L) 50%). Besides, the MIC in the assay on Shigella spp. [10] (read-out: MIC (mg/L) 90%) was 0.06 mg/L (≈ 0.188 µM); with Aeromonas spp. [11] (read-out: MIC (mg/L) 50%), no more than 0.015 mg/L; in the assay with Aeromonas spp. [11] (read-out: MIC (mg/L) 90%), 0.03 mg/L (≈ 0.0939 µM); with Campylobacter jejuni [12] (read-out: MIC (mg/L) 50%) it was 128 mg/L (≈ 401 µM); in the assay on Campylobacter jejuni [12] (read-out: MIC (mg/L) 90%), greater than 128 mg/L. Further, the “% Susceptible” value in the assay on Salmonella spp. [1] (Salmonella spp. (n = 106)) was 100%; with Hafnia alvei [2] it was 100%; with Yersinia enterocolitica [3], 100%; with Shigella spp. [4] it was 100%; with Aeromonas spp. [5], 100%; with Campylobacter jejuni [6], 31.86%. For the same compound, the MIC50 was 0.06 µg/mL (≈ 0.188 µM) in the assay with Salmonella spp. [1] (Salmonella spp. (n = 106)); 0.03 µg/mL (≈ 0.0939 µM) in the assay on Hafnia alvei [2]; 0.06 µg/mL (≈ 0.188 µM) with Yersinia enterocolitica [3]; 0.06 µg/mL (≈ 0.188 µM) against Shigella spp. [4]; no more than 0.015 µg/mL with Aeromonas spp. [5]; 128 µg/mL (≈ 401 µM) with Campylobacter jejuni [6]. The MIC90 against Salmonella spp. [1] (Salmonella spp. (n = 106)) was 0.5 µg/mL (≈ 1.57 µM); in the assay with Hafnia alvei [2], 0.03 µg/mL (≈ 0.0939 µM); with Yersinia enterocolitica [3], 0.06 µg/mL (≈ 0.188 µM); in the assay on Shigella spp. [4], 0.06 µg/mL (≈ 0.188 µM); in the assay with Aeromonas spp. [5], 0.03 µg/mL (≈ 0.0939 µM); in the assay on Campylobacter jejuni [6], greater than 128 µg/mL. Moreover, the “MIC Range” value was 0.06 to 4 µg/mL with Salmonella spp. [1] (Salmonella spp. (n = 106)); no more than 0.015 to 0.03 µg/mL in the assay on Hafnia alvei [2]; 0.06 to 0.5 µg/mL with Yersinia enterocolitica [3]; 0.03 to 0.06 µg/mL against Shigella spp. [4]; no more than 0.015 to 0.12 µg/mL with Aeromonas spp. [5]. The figures for the “MIC (mg/L) Range” value with Salmonella spp. [7] (Salmonella spp. N= 106) and in the assay on Aeromonas spp. [11] were 0.06 to 4 mg/L and no more than 0.015 to 0.12 mg/L, respectively.
